In the first assay the target is T1, Human HIF-PHD2 (Homo sapiens, UniProt Q9GZT9).
T1 construct: FLAG-tagged full length PHD2 expressed in and purified from baculovirus-infected Sf9 cells; FLAG; made in house; host or cells: baculovirus-infected Sf9 cells
T1 sequence (Q9GZT9 whole entry): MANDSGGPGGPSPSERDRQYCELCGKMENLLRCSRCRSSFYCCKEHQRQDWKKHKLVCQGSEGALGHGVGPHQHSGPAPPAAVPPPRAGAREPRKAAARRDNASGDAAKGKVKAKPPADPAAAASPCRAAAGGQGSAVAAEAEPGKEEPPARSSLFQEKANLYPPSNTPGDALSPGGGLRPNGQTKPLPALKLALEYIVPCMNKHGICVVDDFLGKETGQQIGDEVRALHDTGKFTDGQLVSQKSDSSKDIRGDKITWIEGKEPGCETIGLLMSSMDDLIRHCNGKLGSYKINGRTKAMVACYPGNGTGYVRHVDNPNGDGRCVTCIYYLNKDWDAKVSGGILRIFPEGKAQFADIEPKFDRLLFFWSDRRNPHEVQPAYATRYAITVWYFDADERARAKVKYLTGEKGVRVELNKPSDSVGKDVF
Description: Inhibition of the hydroxylation of a HIF peptide by PHD2 (time resolved fluorescence, 384-well). The assay is classed as biochemical. Particulars: FLAG-tagged full length PHD2; 0.2 μM 2-oxoglutarate, 0.5 μM HIF-1α peptide; 45 minutes at room temperature; read-out: Human HIF-PHD2 IC50. As to the method:
To each well of a 384-well plate, 1 μL of test compounds in DMSO (final concentration ranging from 0.3 nM to 10 uM) were added into 20 μl of assay buffer (50 mM Tris pH 7.4/0.01% Tween-20/0.1 mg/ml bovine serum albumin/10 μM ferrous sulfate/1 mM sodium ascorbate/20 μg/ml catalase) containing 0.15 μg/ml FLAG-tagged full length PHD2 expressed in and purified from baculovirus-infected Sf9 cells. After a 5 min preincubation at room temperature, the enzymatic reactions were initiated by the addition of 4 μL of substrates {final concentrations of 0.2 μM 2-oxoglutarate and 0.5 μM HIF-1α peptide biotinyl-[…] […] After incubation for 45 minutes at room temperature, the reactions were terminated by the addition of a 25 μL quench/detection mix to a final concentration of 1 mM ortho-phenanthroline, 0.1 mM EDTA, 0.5 nM anti-(His)6 LANCE reagent (Perkin-Elmer Life Sciences), 100 nM AF647-labeled streptavidin (Invitrogen), and 2 μg/ml (His)6-VHL complex {S. Tan Protein Expr. Purif.
For `O=C(O)CNC(=O)c1c(O)c2cccc3c2n(c1=O)C(c1ccc(C(F)(F)F)cc1)CO3` (racemic) [Example 1, 2-(7-Hydroxy-5-oxo-3-(4-(trifluoromethyl)phenyl)-3,5-dihydro-2H-[1,4]oxazino[2,3,4-ij]quinoline-6-carboxamido)acetic acid], the IC50 amounted to 15.8 nM.

Regarding `O=C(O)CNC(=O)c1c(O)c2cccc3c2n(c1=O)CC(c1cncs1)C3` (racemic) [Example 50, 2-(1-Hydroxy-3-oxo-6-(thiazol-5-yl)-3,5,6,7-tetrahydropyrido[3,2,1-ij]quinoline-2-carboxamido)acetic acid], the IC50 came out at 7.3 nM.

As for `O=C(O)CNC(=O)c1c(O)c2cccc3c2n(c1=O)C(c1ccccc1)C3` (racemic) [Example 129, 2-(6-Hydroxy-4-oxo-2-phenyl-2,4-dihydro-1H-pyrrolo[3,2,1-ij]quinoline-5-carboxamido)acetic acid], the IC50 turned out to be 74 nM.

For the compound `O=C(O)CNC(=O)c1c(O)c2cccc3c2n(c1=O)C(Cc1ccc(Cl)cc1)CC3` (racemic) [Example 131, 2-(5-(4-Chlorobenzyl)-1-hydroxy-3-oxo-3,5,6,7-tetrahydropyrido[3,2,1-ij]quinoline-2-carboxamido)acetic acid], the IC50 worked out at 15 nM.

Turning to `O=C(O)CNC(=O)c1c(O)c2cccc3c2n(c1=O)C(c1ccc(Br)cc1)CO3` (racemic) [Example 133, 2-(3-(4-Bromophenyl)-7-hydroxy-5-oxo-3,5-dihydro-2H-[1,4]oxazino[2,3,4-ij]quinoline-6-carboxamido)acetic acid], the IC50 was 17 nM.

Regarding `O=C(O)CNC(=O)c1c(O)c2cccc3c2n(c1=O)C(c1ccc(C(F)(F)F)cc1)CO3` (single isomer, unassigned) [Example 1a, 2-(7-Hydroxy-5-oxo-3-(4-(trifluoromethyl)phenyl)-3,5-dihydro-2H-[1,4]oxazino[2,3,4-ij]quinoline-6-carboxamido)acetic acid], the IC50 worked out at 33.7 nM.

On to `O=C(O)CNC(=O)c1c(O)c2cccc3c2n(c1=O)C(c1ccc(C(F)(F)F)cc1)CO3` (single isomer, unassigned) [Example 1b, 2-(7-Hydroxy-5-oxo-3-(4-(trifluoromethyl)phenyl)-3,5-dihydro-2H-[1,4]oxazino[2,3,4-ij]quinoline-6-carboxamido)acetic acid], for which the IC50 is 13.1 nM.

On to `CS(=O)(=O)c1cc2c3c(c1)c(O)c(C(=O)NCC(=O)O)c(=O)n3CC(c1ccc(C(F)(F)F)cc1)O2` (single isomer, unassigned) [Example 17, 2-(7-Hydroxy-9-(methylsulfonyl)-5-oxo-2-(4-(trifluoromethyl)phenyl)-3,5-dihydro-2H-[1,4]oxazino[2,3,4-ij]quinoline-6-carboxamido)acetic acid], for which the IC50 turned out to be 0.9 nM.

Consider `CS(=O)(=O)c1cc2c3c(c1)c(O)c(C(=O)NCC(=O)O)c(=O)n3CC(c1ccc(C(F)(F)F)cc1)O2` (single isomer, unassigned) [Example 18, 2-(7-Hydroxy-9-(methylsulfonyl)-5-oxo-2-(4-(trifluoromethyl)phenyl)-3,5-dihydro-2H-[1,4]oxazino[2,3,4-ij]quinoline-6-carboxamido)acetic acid], for which the IC50 amounted to 1.3 nM.

On to `N#Cc1ccc2c(O)c(C(=O)NCC(=O)O)c(=O)n3c2c1OC(c1ccc(C(F)(F)F)cc1)C3` (single isomer, unassigned) [Example 20, 2-(10-Cyano-7-hydroxy-5-oxo-2-(4-(trifluoromethyl)phenyl)-3,5-dihydro-2H-[1,4]oxazino[2,3,4-ij]quinoline-6-carboxamido)acetic acid], for which the IC50 turned out to be 0.5 nM.

As for `N#Cc1ccc2c(O)c(C(=O)NCC(=O)O)c(=O)n3c2c1OC(c1ccc(C(F)(F)F)cc1)C3` (single isomer, unassigned) [Example 21, 2-(10-Cyano-7-hydroxy-5-oxo-2-(4-(trifluoromethyl)phenyl)-3,5-dihydro-2H-[1,4]oxazino[2,3,4-ij]quinoline-6-carboxamido)acetic acid], the IC50 came out at 0.6 nM.

Take `CS(=O)(=O)c1ccc2c(O)c(C(=O)NCC(=O)O)c(=O)n3c2c1OC(c1ccc(C(F)(F)F)cc1)C3` (single isomer, unassigned) [Example 23, 2-(7-Hydroxy-10-(methylsulfonyl)-5-oxo-2-(4-(trifluoromethyl)phenyl)-3,5-dihydro-2H-[1,4]oxazino[2,3,4-ij]quinoline-6-carboxamido)acetic acid]: the IC50 is 1.6 nM.

`CS(=O)(=O)c1ccc2c(O)c(C(=O)NCC(=O)O)c(=O)n3c2c1OC(c1ccc(C(F)(F)F)cc1)C3` (single isomer, unassigned) [Example 24, 2-(7-Hydroxy-10-(methylsulfonyl)-5-oxo-2-(4-(trifluoromethyl)phenyl)-3,5-dihydro-2H-[1,4]oxazino[2,3,4-ij]quinoline-6-carboxamido)acetic acid]: the IC50 was found to be 1.3 nM.

For the compound `O=C(O)CNC(=O)c1c(O)c2cccc3c2n(c1=O)CC(c1cncs1)C3` (single isomer, unassigned) [Example 50a, 2-(1-Hydroxy-3-oxo-6-(thiazol-5-yl)-3,5,6,7-tetrahydropyrido[3,2,1-ij]quinoline-2-carboxamido)acetic acid], the IC50 stood at 6.7 nM.

For `O=C(O)CNC(=O)c1c(O)c2cccc3c2n(c1=O)CC(c1cncs1)C3` (single isomer, unassigned) [Example 50b, 2-(1-Hydroxy-3-oxo-6-(thiazol-5-yl)-3,5,6,7-tetrahydropyrido[3,2,1-ij]quinoline-2-carboxamido)acetic acid], the IC50 turned out to be 8.3 nM.

With `O=C(O)CNC(=O)c1c(O)c2c(F)ccc3c2n(c1=O)CC(c1ccc(C(F)(F)F)cc1)O3` (single isomer, unassigned) [Example 68, 2-(8-Fluoro-7-hydroxy-5-oxo-2-(4-(trifluoromethyl)phenyl)-3,5-dihydro-2H-[1,4]oxazino[2,3,4-ij]quinoline-6-carboxamido)acetic acid], the IC50 turned out to be 4.9 nM.

For `O=C(O)CNC(=O)c1c(O)c2c(Cl)ccc3c2n(c1=O)CC(c1ccc(C(F)(F)F)cc1)O3` (single isomer, unassigned) [Example 70, 2-(8-Chloro-7-hydroxy-5-oxo-2-(4-(trifluoromethyl)phenyl)-3,5-dihydro-2H-[1,4]oxazino[2,3,4-ij]quinoline-6-carboxamido)acetic acid], the IC50 came to 1.8 nM.

On to `O=C(O)CNC(=O)c1c(O)c2ccc(Cl)c3c2n(c1=O)CC(c1ccc(C(F)(F)F)cc1)O3` (single isomer, unassigned) [Example 72, 2-(10-Chloro-7-hydroxy-5-oxo-2-(4-(trifluoromethyl)phenyl)-3,5-dihydro-2H-[1,4]oxazino[2,3,4-ij]quinoline-6-carboxamido)acetic acid], for which the IC50 was found to be 2.6 nM.

For `O=C(O)CNC(=O)c1c(O)c2cc(Cl)cc3c2n(c1=O)CC(c1ccc(C(F)(F)F)cc1)O3` (single isomer, unassigned) [Example 74, 2-(9-Chloro-7-hydroxy-5-oxo-2-(4-(trifluoromethyl)phenyl)-3,5-dihydro-2H-[1,4]oxazino[2,3,4-ij]quinoline-6-carboxamido)acetic acid], the IC50 came to 10 nM.

On to `N#Cc1ccc(C2Cn3c(=O)c(C(=O)NCC(=O)O)c(O)c4ccc(C(F)(F)F)c(c43)O2)cc1` (single isomer, unassigned) [Example 77, 2-(2-(4-cyanophenyl)-7-hydroxy-5-oxo-10-(trifluoromethyl)-3,5-dihydro-2H-[1,4]oxazino[2,3,4-ij]quinoline-6-carboxamido)acetic acid], for which the IC50 came to 2 nM.

The assay is the same for the next values; noted with them: FLAG-tagged full length PHD2; 0.2 μM 2-oxoglutarate, 0.5 μM HIF-1α peptide; 45 minutes at room temperature; read-out: MS m/z (M + 1)+ and human HIF-PHD2 IC50.
Regarding `O=C(O)CNC(=O)c1c(O)c2c(F)ccc3c2n(c1=O)CC(c1ccc(C(F)(F)F)cc1)O3` (single isomer, unassigned) [Example 69, 2-(8-fluoro-7-hydroxy-5-oxo-2-(4-(trifluoromethyl)phenyl)-3,5-dihydro-2H-[1,4]oxazino[2,3,4-ij]quinoline-6-carboxamido)acetic acid], the IC50 was found to be 3.3 nM.

For the compound `O=C(O)CNC(=O)c1c(O)c2c(Cl)ccc3c2n(c1=O)CC(c1ccc(C(F)(F)F)cc1)O3` (single isomer, unassigned) [Example 71, 2-(8-chloro-7-hydroxy-5-oxo-2-(4-(trifluoromethyl)phenyl)-3,5-dihydro-2H-[1,4]oxazino[2,3,4-ij]quinoline-6-carboxamido)acetic acid], the IC50 worked out at 5.1 nM.

Turning to `O=C(O)CNC(=O)c1c(O)c2ccc(Cl)c3c2n(c1=O)CC(c1ccc(C(F)(F)F)cc1)O3` (single isomer, unassigned) [Example 73, 2-(10-chloro-7-hydroxy-5-oxo-2-(4-(trifluoromethyl)phenyl)-3,5-dihydro-2H-[1,4]oxazino[2,3,4-ij]quinoline-6-carboxamido)acetic acid], the IC50 was found to be 2.8 nM.

Regarding `O=C(O)CNC(=O)c1c(O)c2cc(Cl)cc3c2n(c1=O)CC(c1ccc(C(F)(F)F)cc1)O3` (single isomer, unassigned) [Example 75, 2-(9-chloro-7-hydroxy-5-oxo-2-(4-(trifluoromethyl)phenyl)-3,5-dihydro-2H-[1,4]oxazino[2,3,4-ij]quinoline-6-carboxamido)acetic acid], the IC50 was 12 nM.

For the origin of these results see patent US9969752B2, “Inhibitors of HIF prolyl hydroxylase” (MERCK SHARP & DOHME CORP., priority 2014, dated 2018).
